Read-outs that look alike come from different tables or passages of the source.
Tests used:
[1] = Osmolality of aqueous solution at 300 mg I/ml; type: physicochemical; conditions: for OSMOLALITY mOsm/kg at 300 mg I/ml: 300 mg I/ml (Table II); for OSMOLALITY 37°C mOsm/kg at 300 mg I/ml: 300 mg I/ml (Table I)
[2] = system: RAT; assay: General toxicity, average lethal dose (DL50) in the rat, i.v.; type: in vivo
Protocol: (§1) On the other hand, radiologists need compounds with a wide range of uses: for example, angiography, urography, myelography, cisternography, lymphography, cardiography and gastrography. The products according to this invention fulfil the requirements for the above uses, as they have high water solubility, normally higher than 60% (w/v), which, in some cases, is as high as 100% at 20°C, without showing any tendency to crystallize. They also have a very low general toxicity, stated as the average lethal dose for the rat, DL₅₀.

[3] = physchem; type: physicochemical; conditions: for solubility: water
Protocol: as §1

[4] = Viscosity of aqueous solution at 300 mg I/ml; type: physicochemical; conditions: for VISCOSITY 37°C mPa.s 300 mg I/ml: 300 mg I/ml (Table I); for VISCOSITY mPas (37°C) at 300 mg I/ml: 300 mg I/ml (Table II)
[5] = 20°C (Table II), read-out: SOLUBILITY IN WATER at 20°

Row | SMILES | OSMOLALITY mOsm/kg at 300 mg I/ml [1] | OSMOLALITY 37°C mOsm/kg at 300 mg I/ml [1] | DL50 (RAT) via i.v. g I/kg [2] | SOLUBILITY IN WATER at 20° ([3]; 20°C (Table II)) | solubility ([3]; 20°C (Table I), read-out: SOLUBILITY in water at 20°C (w/v)) | VISCOSITY 37°C mPa.s 300 mg I/ml [4] | VISCOSITY mPas (37°C) at 300 mg I/ml [4] | SOLUBILITY IN WATER at 20° [3] | solubility [3] | solubility [3, 5]
1 | O=C(CN(CCO)CC(=O)Nc1c(I)c(C(=O)NCC(O)CO)c(I)c(C(=O)NCC(O)CO)c1I)Nc1c(I)c(C(=O)NCC(O)CO)c(I)c(C(=O)NCC(O)CO)c1I (stereo not shown) [ICJ-1192, N,N'-Bis-{3,5-bis-[N-(2,3-dihydroxypropyl)carbamoyl]-2,4,6-triiodophenyl}-3-(2-hydroxyethyl)-3-azapentanediamide] | 167 mOsm/kg | 167 mOsm/kg | > 25 g I/kg | > 60% | > 600 mg/mL | 9.4 mPa.s | 9.4 mPas |  |  | 
2 | O=C(CN(CCO)CC(=O)Nc1c(I)c(C(=O)NC(CO)C(O)CO)c(I)c(C(=O)NC(CO)C(O)CO)c1I)Nc1c(I)c(C(=O)NCCO)c(I)c(C(=O)NCCO)c1I (stereo not shown) [ICJ-1592] | 151 mOsm/kg | 151 mOsm/kg | > 20 g I/kg |  |  | 8.4 mPa.s | 8.4 mPas | > 60% | > 600 mg/mL | 
3 | CN(C(=O)CN(CCO)CC(=O)N(C)c1c(I)c(C(=O)NCC(O)CO)c(I)c(C(=O)NCC(O)CO)c1I)c1c(I)c(C(=O)NCC(O)CO)c(I)c(C(=O)NCC(O)CO)c1I (stereo not shown) [ICJ-1692, N,N'-Bis-{3,5-bis-[N-(2,3-dihydroxypropyl)carbamoyl]-2,4,6-triiodophenyl}-N,N'-dimethyl-3-(2-hydroxethyl)-3-azapentanediamide] | 174 mOsm/kg | 174 mOsm/kg | > 20 g I/kg |  |  | 9.3 mPa.s | 9.3 mPas | > 60% | > 600 mg/mL | 
4 | COCCN(CC(=O)Nc1c(I)c(C(=O)NCC(O)CO)c(I)c(C(=O)NCC(O)CO)c1I)CC(=O)Nc1c(I)c(C(=O)NCC(O)CO)c(I)c(C(=O)NCC(O)CO)c1I (stereo not shown) [ICJ-2692, N,N'-Bis-{3,5-bis-[N-(2,3-dihydroxypropyl)carbamoyl]-2,4,6-triiodophenyl}-3-(2-methoxyethyl)-3-azapentanediamide] | 185 mOsm/kg |  |  |  |  |  | 9.7 mPas |  |  | > 600 mg/mL
5 | COCCN(CC(=O)N(C)c1c(I)c(C(=O)NCC(O)CO)c(I)c(C(=O)NCC(O)CO)c1I)CC(=O)N(C)c1c(I)c(C(=O)NCC(O)CO)c(I)c(C(=O)NCC(O)CO)c1I (stereo not shown) [ICJ-2892, N,N'-Bis-{3,5-bis-[N-(2,3-dihydroxypropyl)carbamoyl]-2,4,6-triiodophenyl}-N,N'-dimethyl-3-(2-methoxymethyl)-3-azapentanediamide] | 200 mOsm/kg |  |  |  |  |  | 10.8 mPas |  |  | > 600 mg/mL
6 | CC(=O)N(CC(O)CN(C(C)=O)c1c(I)c(C(=O)NCC(O)CO)c(I)c(C(=O)NCC(O)CO)c1I)c1c(I)c(C(=O)NCC(O)CO)c(I)c(C(=O)NCC(O)CO)c1I (stereo not shown) [IODIXANOL, Iodixanol, reference compound] |  | 190 mOsm/kg | > 20 g I/kg |  |  | 8.7 mPa.s |  |  | > 600 mg/mL | 
